21 compounds from ChEMBL document CHEMBL3091372, “Design, synthesis, and biological testing of novel naphthoquinones as substrate-based inhibitors of the quinol/fumarate reductase from Wolinella succinogenes” (J Med Chem, 2013) can be followed below.

pIC50: −log10 of the molar value. The source made the active and inactive calls. The rule behind the calls is not given here.

For assay [1], the system named is Wolinella succinogenes. Nature of the assay: Inhibition of Wolinella succinogenes succinate/quinone reductase at 20 uM.
In assay [2] the test system is Wolinella succinogenes. Nature of the assay: Inhibition of Wolinella succinogenes quinol/fumarate reductase at 20 uM.
Assay [3] concerns the target T1, NAD(P)H dehydrogenase [quinone] 1 (Rattus norvegicus) (UniProt P05982).
T1 sequence (whole entry): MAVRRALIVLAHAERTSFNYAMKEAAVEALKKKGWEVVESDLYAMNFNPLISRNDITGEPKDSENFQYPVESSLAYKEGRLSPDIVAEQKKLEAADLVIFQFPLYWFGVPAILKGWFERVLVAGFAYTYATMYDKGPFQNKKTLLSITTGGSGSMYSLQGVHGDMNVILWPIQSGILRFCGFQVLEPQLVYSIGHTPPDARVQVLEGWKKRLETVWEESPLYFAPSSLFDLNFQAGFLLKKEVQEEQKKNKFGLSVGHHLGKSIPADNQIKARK
As to the kind of experiment: Inhibition of rat DT-diaphorase assessed as reduction of cytochrome c at 2 uM.

A short description of assay [4]: Inhibition of Wolinella succinogenes quinol/fumarate reductase.
Assay [5] can be described thus: Inhibition of Wolinella succinogenes succinate/quinone reductase.

A word on the pIC50: it is the negative decadic logarithm of the IC50, by convention in mol/L. Read a high pIC50 as a low IC50.

In the case of `CCC1=C(O)C(=O)c2ccccc2C1=O`, the “inhibition call (active/not active)” value with Wolinella succinogenes [1] was “Active”. Further, the “inhibition activity (active/not active)” value with Wolinella succinogenes [2] was “Active”.

In the case of `CCCCCCCCCOC1=CC(=O)c2ccccc2C1=O`, the “inhibition call (active/not active)” value in the assay on Wolinella succinogenes [1] is “Active”. The “inhibition activity (active/not active)” value in the assay with Wolinella succinogenes [2] was “Active”.

For `CCCCCCC1=C(O)C(=O)c2ccccc2C1=O`, the “inhibition call (active/not active)” value in the assay on Wolinella succinogenes [1] was “Active”. In the assay with Wolinella succinogenes [2], the “inhibition activity (active/not active)” value is “Active”.

Regarding `CC1=C(Br)C(=O)c2ccccc2C1=O`, the inhibition result in assay [3] is “inactive”. Also, the values for the negative logarithm of the IC50 (pIC50) in assay [4] and in assay [5] were 7.21 and 5.96, respectively. Further, the “inhibition call (active/not active)” value in the assay on Wolinella succinogenes [1] was “Active”. In addition, in the assay with Wolinella succinogenes [2], the “inhibition activity (active/not active)” value is “Active”.

For the compound `CC(C)(C)CC1=C(O)C(=O)c2ccccc2C1=O`, the “inhibition call (active/not active)” value with Wolinella succinogenes [1] was “Active”. In the assay on Wolinella succinogenes [2], the “inhibition activity (active/not active)” value was “Active”.

Take `CC1=C(O)C(=O)c2ccccc2C1=O`: the “inhibition call (active/not active)” value with Wolinella succinogenes [1] is “Active”. Also, the “inhibition activity (active/not active)” value with Wolinella succinogenes [2] is “Active”.

Consider `CCCCCCC1=C(OC)C(=O)c2ccccc2C1=O`, for which the “inhibition call (active/not active)” value in the assay on Wolinella succinogenes [1] is “Active”. For the same compound, in the assay on Wolinella succinogenes [2], the “inhibition activity (active/not active)” value is “Active”.

As for `O=C1C(O)=C(CCCCCCCCCCBr)C(=O)c2ccccc21`, in the assay with Wolinella succinogenes [1], the “inhibition call (active/not active)” value is “inactive”. Moreover, the “inhibition activity (active/not active)” value with Wolinella succinogenes [2] was “inactive”.

As to `O=C1C=C(O)C(=O)c2ccccc21`, in the assay with Wolinella succinogenes [1], the “inhibition call (active/not active)” value was “Active”. Further, in the assay with Wolinella succinogenes [2], the “inhibition activity (active/not active)” value was “Active”.

With `CCC1=C(Br)C(=O)c2ccccc2C1=O`, the inhibition result in assay [3] is “inactive”. Moreover, the pIC50 was 6.21 in assay [4] and 6.22 in assay [5]. The “inhibition call (active/not active)” value in the assay on Wolinella succinogenes [1] was “Active”. Besides, the “inhibition activity (active/not active)” value in the assay with Wolinella succinogenes [2] was “Active”.

For the compound `CCCCCCCCCCC1=C(O)C(=O)c2ccccc2C1=O`, the “inhibition call (active/not active)” value in the assay on Wolinella succinogenes [1] is “Active”. In addition, the “inhibition activity (active/not active)” value in the assay with Wolinella succinogenes [2] was “Active”.

Take `CCCCCCCCCCC1=C(OC)C(=O)c2ccccc2C1=O`: the “inhibition call (active/not active)” value in the assay on Wolinella succinogenes [1] was “Active”. For the same compound, the “inhibition activity (active/not active)” value in the assay with Wolinella succinogenes [2] is “Active”.

For `CCCCCCCCCCC1=C(Br)C(=O)c2ccccc2C1=O`, the “inhibition call (active/not active)” value in the assay on Wolinella succinogenes [1] is “Active”. Moreover, the “inhibition activity (active/not active)” value with Wolinella succinogenes [2] is “Active”.

In the case of `O=C1C(O)=C(CCCC2CCCCC2)C(=O)c2ccccc21`, the “inhibition call (active/not active)” value in the assay on Wolinella succinogenes [1] was “Active”. Also, the “inhibition activity (active/not active)” value with Wolinella succinogenes [2] was “Active”.

On to `CC(C)(O)CCC1=C(O)C(=O)c2ccccc2C1=O`, for which the “inhibition call (active/not active)” value in the assay with Wolinella succinogenes [1] was “inactive”. Also, the “inhibition activity (active/not active)” value in the assay on Wolinella succinogenes [2] is “inactive”.

Regarding `CCC1=C(OC)C(=O)c2ccccc2C1=O`, the “inhibition call (active/not active)” value in the assay on Wolinella succinogenes [1] is “Active”. The “inhibition activity (active/not active)” value with Wolinella succinogenes [2] was “Active”.

Regarding `CCCCCCCCCCCCCCC1=C(O)C(=O)c2ccccc2C1=O`, the “inhibition call (active/not active)” value in the assay with Wolinella succinogenes [1] was “Active”. Moreover, the “inhibition activity (active/not active)” value with Wolinella succinogenes [2] is “Active”.

With `O=C1C(O)=C(CCCCC2CCCCC2)C(=O)c2ccccc21`, in the assay on Wolinella succinogenes [1], the “inhibition call (active/not active)” value was “Active”. For the same compound, the “inhibition activity (active/not active)” value in the assay with Wolinella succinogenes [2] is “Active”.

As for `CCCCCCCCCOC1=CC(=O)C(=O)c2ccccc21`, the “inhibition call (active/not active)” value in the assay on Wolinella succinogenes [1] was “inactive”. Besides, the “inhibition activity (active/not active)” value in the assay with Wolinella succinogenes [2] is “inactive”.

For `O=C1C(O)=C(CCCc2ccccc2)C(=O)c2ccccc21`, the “inhibition call (active/not active)” value with Wolinella succinogenes [1] was “Active”. Also, the “inhibition activity (active/not active)” value in the assay on Wolinella succinogenes [2] is “Active”.

Consider `CCCCCCC1=C(Br)C(=O)c2ccccc2C1=O`, for which the “inhibition call (active/not active)” value in the assay on Wolinella succinogenes [1] is “Active”. In the assay with Wolinella succinogenes [2], the “inhibition activity (active/not active)” value is “Active”.
